Test results: the NIST ThermoML archive (doi:10.1016/j.jct.2008.01.020)

Assay: mn = molality of the nth substance listed, in mol/kg
Conditions: 101 kPa, Liquid; for apparent molar heat capacity: Flow calorimetry

Nc1ncnc2c1ncn2[C@@H]1O[C@H](CO)[C@@H](O)[C@H]1O [β-adenosine] + O
Conditions	apparent molar heat capacity [J/K/mol]	mass density [kg/m3]
288.15 K, m1 = 0.01329	–	1000.4
288.15 K, m1 = 0.01395	–	1000.47
288.15 K, m1 = 0.01492	–	1000.56
288.15 K, m1 = 0.01614	–	1000.68
288.15 K, m1 = 0.01712	–	1000.77
288.15 K, m1 = 0.01799	–	1000.86
288.15 K, m1 = 0.01882	–	1000.94
288.15 K, m1 = 0.01892	–	1000.95
288.15 K, m1 = 0.01942	–	1001
298.15 K, m1 = 0.01501	–	998.486
298.15 K, m1 = 0.01599	483.2	998.58
298.15 K, m1 = 0.01704	488	998.686
298.15 K, m1 = 0.01799	487.4	998.767
298.15 K, m1 = 0.01899	491.7	998.864
298.15 K, m1 = 0.01941	486.7	998.902
298.15 K, m1 = 0.01999	489.8	998.965
298.15 K, m1 = 0.02098	488.4	999.055
298.15 K, m1 = 0.02171	489.9	999.129
298.15 K, m1 = 0.02196	487.5	999.151
303.15 K, m1 = 0.01329	–	996.913
303.15 K, m1 = 0.01395	–	996.975
303.15 K, m1 = 0.01501	–	997.076
303.15 K, m1 = 0.01546	–	997.117
303.15 K, m1 = 0.01614	–	997.185
303.15 K, m1 = 0.01712	–	997.271
303.15 K, m1 = 0.01799	–	997.354
303.15 K, m1 = 0.01892	–	997.445
303.15 K, m1 = 0.01903	–	997.455
303.15 K, m1 = 0.01942	–	997.495
313.15 K, m1 = 0.01297	–	993.43
313.15 K, m1 = 0.01346	–	993.47
313.15 K, m1 = 0.01395	–	993.522
313.15 K, m1 = 0.01501	–	993.616
313.15 K, m1 = 0.01598	–	993.707
313.15 K, m1 = 0.017	–	993.802
313.15 K, m1 = 0.01799	–	993.896
313.15 K, m1 = 0.01882	–	993.976
313.15 K, m1 = 0.01997	–	994.077
